Ten compounds from patent US8889726B2, “Chemica compounds” (priority 2011, dated 2014) can be followed below.

In general, EC50 refers to the concentration giving half of the maximal effect.

Like-named read-outs stand apart in the source and are kept apart here.

In assay [1] the test system is HCV genotype 1b subgenomic replicon (ET cell line). As to the kind of experiment: HCV replicon assay, genotype 1b (luciferase). The class given is cell-based. The settings on record: genotype 1b replicon ET cell line, luciferase activity at 48 hours. As to the method: (§1) Protocol for Testing and Data Analysis of Compounds in the HCV Replicon Assay
(§2) Compounds were assayed for activity against HCV using the genotype 1a and 1b subgenomic replicon model systems. Stable cell lines bearing the genotype 1a and 1b replicons were used for screening of compounds. Both replicons are bicistronic and contain the firefly luciferase gene. The ET cell line is stably transfected with RNA transcripts harboring a I389luc-ubi-neo/NS3-3′/ET replicon with firefly luciferase-ubiquitin-neomycin phosphotransferase fusion protein and EMCV-IRES driven NS3-5B polyprotein containing the cell culture adaptive mutations (E1202G; T1280I; K1846T) (Krieger at al, 2001 and unpublished). The genotype 1a replicon is a stable cell line contains the H77 NS3-5B polyprotein sequence, modified to contain the firefly luciferase gene and encode for neomycin resistance. The genotype 1a replicon contains several adaptive changes (NS4B Q31H, NS5A K68R, NS5A S232I). The cells were grown in DMEM, supplemented with 10% fetal calf serum, 2 mM Glutamine, Penicillin (100 IU/mL)/Streptomycin (100 μg/mL), lx nonessential amino acids, and 250-500 μg/mL G418 (“Geneticin”). They were all available through Life Technologies (Bethesda, Md.). The cells were plated at 5×10^3 cells/well in 384 well plates containing compounds. The final concentration of compounds ranged between 0.03 pM to […] and the final DMSO concentration of 0.5-1%.
(§3) Luciferase activity was measured 48 hours later by adding a Steady glo reagent (Promega, Madison, Wis.). Percent inhibition of replication data was plotted relative to no compound control. Under the same condition, cytotoxicity of the compounds was determined using cell titer glo (Promega, Madison, Wis.). EC50s were determined from an 11 point dose response curve using 3-4-fold serial dilution for each compound, which spans a concentration range >1000 fold. The level of inhibition for each compound was determined with Activity Base or with BioAssay plus the Excel XC50 module. Percent inhibition was determined with the following equation where the cross-talk corrected value is the value from the test well, the compound positive control mean is the average value of the wells with no compound present, and the DMSO negative control mean is the average value of the wells with DMSO but no cells present.
(§4) [formula] These normalized values are exported to EC50 where they are plotted against the molar compound concentrations using the standard four parameter logistic equation:
(§5) [formula] Where: • A=minimum y D=slope factor • B=maximum y x=log10 compound concentration [M] • C=log10EC50 pEC50=−C
In general terms: A replicon is a self-replicating genome or part of one, used to study replication in cells.

Assay [2] deals with HCV genotype 1a subgenomic replicon. As to the kind of experiment: HCV replicon assay, genotype 1a (luciferase). In kind it is cell-based. The settings on record: read-out: Replicon 1A EC50. On the procedure:
as §1, §2, §3, §4, §5

Turning to `COC(=O)N[C@H](C(=O)N1[C@@H]2CCC[C@@H]2C[C@H]1c1ncc(-c2ccc3c(c2)Oc2ccc(-c4cnc([C@@H]5C[C@@H]6CCC[C@@H]6N5C(=O)[C@@H](NC(=O)OC)[C@@H](C)OC)[nH]4)cc2O3)[nH]1)[C@@H](C)OC` [Example 10, Dimethyl ((2S,2′S,3R,3′R)-((2S,2′S,3aS,3a′S,6aS,6a′S)-2,2′-(5,5′-(dibenzo[b,e][1,4]dioxine-2,7-diyl)bis(1H-imidazole-5,2-diyl))bis(hexahydrocyclopenta[b]pyrrole-2,1(2H)-diyl))bis(3-methoxy-1-oxobutane-2,1-diyl))dicarbamate], the EC50 in assay [1] (Hepatitis C virus) was determined as 0.01 nM; in assay [2] (Hepatitis C virus, 48 h), 0.01 nM.

Turning to `COC(=O)N[C@H](C(=O)N1[C@@H]2CCC[C@@H]2C[C@H]1c1ncc(-c2ccc3c(c2)C(F)(F)c2cc(-c4cnc([C@@H]5C[C@@H]6CCC[C@@H]6N5C(=O)[C@@H](NC(=O)OC)[C@@H](C)OC)[nH]4)ccc2-3)[nH]1)[C@@H](C)OC` [Example 8, Dimethyl ((2S,2′S,3R,3′R)-((2S,2′S,3aS,3a′S,6aS,6a′S)-2,2′-(5,5′-(9,9-difluoro-9H-fluorene-2,7-diyl)bis(1H-imidazole-5,2-diyl))bis(hexahydrocyclopenta[b]pyrrole-2,1(2H)-diyl))bis(3-methoxy-1-oxobutane-2,1-diyl))dicarbamate], the EC50 in assay [1] (Hepatitis C virus) came to 0.016 nM; in assay [2] (Hepatitis C virus, 48 h), 0.032 nM.

As to `COC(=O)N[C@H](C(=O)N1[C@@H]2CCC[C@@H]2C[C@H]1c1ncc(-c2ccc3c(c2)S(=O)(=O)c2cc(-c4cnc([C@@H]5C[C@@H]6CCC[C@@H]6N5C(=O)[C@@H](NC(=O)OC)[C@@H](C)OC)[nH]4)ccc2-3)[nH]1)[C@@H](C)OC` [Example 9], the half-maximal effective concentration (EC50) was 0.032 nM in assay [1] (Hepatitis C virus) and 0.08 nM in assay [2] (Hepatitis C virus, 48 h).

As to `COC(=O)N[C@H](C(=O)N1[C@H](c2ncc(-c3ccc4c(c3)-c3ccc(-c5cnc([C@@H]6C[C@@H]7CCC[C@@H]7N6C(=O)[C@@H](NC(=O)OC)[C@@H](C)O)[nH]5)cc3-4)[nH]2)C[C@@H]2CCC[C@@H]21)[C@@H](C)O` [Example 1], the EC50 in assay [1] (Hepatitis C virus) was determined as 0.006 nM; in assay [2] (Hepatitis C virus, 48 h), 0.011 nM.

As for `COC(=O)N[C@H](C(=O)N1[C@H](c2ncc(-c3ccc4c(c3)Cc3ccc(-c5cnc([C@@H]6C[C@H]7CCC[C@H]7N6C(=O)[C@H](NC(=O)OC)[C@H](C)OC)[nH]5)cc3C4)[nH]2)C[C@@H]2CCC[C@@H]21)[C@@H](C)OC` [Example 5, dimethyl ((2S,2′S,3R,3′R)-((2S,2′S,3aS,3a′S,6aS,6a′S)-2,2′-(5,5′-(9,10-dihydroanthracene-2,6-diyl)bis(1H-imidazole-5,2-diyl))bis(hexahydrocyclopenta[b]pyrrole-2,1(2H)-diyl))bis(3-methoxy-1-oxobutane-2,1-diyl))dicarbamate], the EC50 in assay [1] (Hepatitis C virus) was 0.02 nM; in assay [2] (Hepatitis C virus, 48 h), 0.032 nM.

As for `COC(=O)N[C@H](C(=O)N1[C@H](c2ncc(-c3ccc4c(c3)-c3ccc(-c5cnc([C@@H]6C[C@@H]7CCC[C@@H]7N6C(=O)[C@@H](NC(=O)OC)[C@@H](C)OC)[nH]5)cc3-4)[nH]2)C[C@@H]2CCC[C@@H]21)[C@@H](C)OC` [Example 2, dimethyl ((2S,2′S,3R,3′R)-((2S,2′S,3aS,3a′S,6aS,6a′S)-2,2′-(5,5′-(biphenylene-2,6-diyl)bis(1H-imidazole-5,2-diyl))bis(hexahydrocyclopenta[b]pyrrole-2,1(2H)-diyl))bis(3-methoxy-1-oxobutane-2,1-diyl))dicarbamate], the EC50 in assay [1] (Hepatitis C virus) was determined as 0.008 nM; in assay [2] (Hepatitis C virus, 48 h) it was 0.01 nM.

Take `COC(=O)N[C@H](C(=O)N1[C@H](c2ncc(-c3ccc4c(c3)Cc3cc(-c5cnc([C@@H]6C[C@H]7CCC[C@H]7N6C(=O)[C@H](NC(=O)OC)[C@H](C)OC)[nH]5)ccc3-4)[nH]2)C[C@@H]2CCC[C@@H]21)[C@@H](C)OC` [Example 4]: the EC50 in assay [1] (Hepatitis C virus) was 0.02 nM; in assay [2] (Hepatitis C virus, 48 h) it was 0.04 nM.

Regarding `COC(=O)N[C@H](C(=O)N1[C@H](c2nc(-c3ccc4c(c3)-c3ccc(-c5c[nH]c([C@@H]6C[C@@H]7CCC[C@@H]7N6C(=O)[C@@H](NC(=O)OC)[C@@H](C)OC)n5)cc3-4)c[nH]2)C[C@@H]2CCC[C@@H]21)[C@@H](C)O` [Example 3, Methyl [(1S,2R)-1-{[(2S,3aS,6aS)-2-[4-(6-{2-[(2S,3aS,6aS)-1-((2S,3R)-3-hydroxy-2-{[(methyloxy)carbonyl]amino}butanoyl)octahydrocyclopenta[b]pyrrol-2-yl]-1H-imidazol-4-yl}-2-biphenylenyl)-1H-imidazol-2-yl]hexahydrocyclopenta[b]pyrrol-1(2H)-yl]carbonyl}-2-(methyloxy)propyl]carbamate], the EC50 in assay [1] (Hepatitis C virus) came to 0.008 nM; in assay [2] (Hepatitis C virus, 48 h) it was 0.013 nM.

In the case of `COC(=O)N[C@H](C(=O)N1[C@H](c2ncc(-c3ccc4c5ccc(-c6cnc([C@@H]7C[C@@H]8CCC[C@@H]8N7C(=O)[C@@H](NC(=O)OC)[C@@H](C)OC)[nH]6)cc5n(C)c4c3)[nH]2)C[C@@H]2CCC[C@@H]21)[C@@H](C)OC` [Example 7, dimethyl ((2S,2′S,3R,3′R)-((2S,2′S,3aS,3a′S,6aS,6a′S)-2,2′-(5,5′-(9-methyl-9H-carbazole-2,7-diyl)bis(1H-imidazole-5,2-diyl))bis(hexahydrocyclopenta[b]pyrrole-2,1(2H)-diyl))bis(3-methoxy-1-oxobutane-2,1-diyl))dicarbamate], the EC50 in assay [1] came to 0.032 nM; in assay [2] (genotype 1a replicon stable cell line (H77 NS3-5B), luciferase activity at 48 hours), 0.16 nM.

For the compound `COC(=O)N[C@H](C(=O)N1[C@H](c2ncc(-c3ccc4c(c3)CCc3cc(-c5cnc([C@@H]6C[C@H]7CCC[C@H]7N6C(=O)[C@H](NC(=O)OC)[C@H](C)OC)[nH]5)ccc3-4)[nH]2)C[C@@H]2CCC[C@@H]21)[C@@H](C)OC` [Example 6, Dimethyl ((2S,2′S,3R,3′R)-((2S,2′S,3aS,3a′S,6aS,6a′S)-2,2′-(5,5′-(9,10-dihydrophenanthrene-2,7-diyl)bis(1H-imidazole-5,2-diyl))bis(hexahydrocyclopenta[b]pyrrole-2,1(2H)-diyl))bis(3-methoxy-1-oxobutane-2,1-diyl))dicarbamate], the EC50 came to 0.016 nM in assay [1] (Hepatitis C virus) and 0.016 nM in assay [2] (Hepatitis C virus, 48 h).
